From paper PMC11901381 (Future Medicinal Chemistry, 2025) come the findings set out here.

Structures are written as SMILES.

Series [1] in a line: Animal cytotoxicity, CCK-8 assay. It is filed as cell-based, bovine. The note with it: bovine, MDBK (Madin-Darby bovine kidney) cells. On the technique in general: Formazan colour is commonly taken as a measure of viable cells.
The subject of series [2] is L. donovani strain 9515 promastigotes. In words: Antipromastigote resazurin assay. It is filed as cell-based, Leishmania donovani. The note with it: for IC50: Leishmania donovani, read-out: Antipromastigote activity IC50; for AG (activity gain): IC50 (1)/IC50 (compd.), L. donovani promastigotes; for SI1: SI1 = IC50 Vero/IC50 promastigote, L. donovani.
Series [3] in a line: General. It is filed as cell-based. The settings on record: African green monkey, Vero cells (monkey kidney epithelial cells).
Series [4] deals with L. major strain NIH S promastigotes. In words: Antipromastigote resazurin assay. It is filed as cell-based, Leishmania major. The note with it: for IC50: Leishmania major, read-out: Antipromastigote activity IC50; for AG (activity gain): IC50 (1)/IC50 (compd.), L. major promastigotes; for SI4: SI4 = IC50 Vero/IC50 promastigote, L. major. (In general: Alamar Blue is a resazurin reagent that responds to reducing activity.)

Series [5] has as its system T. brucei brucei strain GUTat3.1. Description: Antitrypanosomal assay. Type of series: cell-based, Trypanosoma brucei brucei. The settings on record: for IC50: Trypanosoma brucei, read-out: Antitrypomastigote activity IC50 ± SD Tbb GuTat3.1; for SI Tbb GuTat3.1: IC50 of MDBK/IC50 of trypanosome.
The nature of series [6]: Host cell toxicity, resazurin assay. The note with it: human. Type of series: cell-based.
Series [7] relates to L. major strain NIH S intramacrophage amastigotes. In words: Intramacrophage antileishmanial resazurin assay. Type of series: cell-based, Leishmania major. The settings on record: for SI5: SI5 = IC50 Vero/static IC50 amastigote; for SI5 / SI6 / SpI3 / SpI4: L. major; for SI6: SI6 = IC50 Vero/cidal IC50 amastigote; for SpI3: SpI3 = IC50 promastigote/static IC50 amastigote; for SpI4: SpI4 = IC50 promastigote/cidal IC50 amastigote.

Series [8] relates to L. donovani strain 9515 intramacrophage amastigotes. In words: Intramacrophage antileishmanial resazurin assay. Type of series: cell-based, Leishmania donovani. The note with it: for SI2: SI2 = IC50 Vero/static IC50 amastigote; for SI2 / SI3 / SpI1 / SpI2: L. donovani; for SI3: SI3 = IC50 Vero/cidal IC50 amastigote; for SpI1: SpI1 = IC50 promastigote/static IC50 amastigote; for SpI2: SpI2 = IC50 promastigote/cidal IC50 amastigote.

In series [9] the test system is T. brucei rhodesiense strain IL1501. Description: Antitrypanosomal assay. Type of series: cell-based, Trypanosoma brucei rhodesiense. The note with it: IC50 of MDBK/IC50 of trypanosome.
Series [10] relates to T. brucei gambiense strain IL1922. In words: Antitrypanosomal assay. The note with it: IC50 of MDBK/IC50 of trypanosome. Type of series: cell-based, Trypanosoma brucei gambiense.
For series [11], the system named is T. equiperdum strain IVM-t1. In words: Antitrypanosomal assay. The settings on record: IC50 of MDBK/IC50 of trypanosome. Type of series: cell-based, Trypanosoma equiperdum.
The nature of series [12]: Solubility observed during sample preparation and screening. It is filed as physicochemical. The note with it: for Solubility in 100% DMSO: 100% dimethyl sulfoxide used for sample preparation.
For series [13], the system named is T. congolense strain IL3000. In words: Antitrypanosomal assay. It is filed as cell-based, Trypanosoma congolense. The note with it: IC50 of MDBK/IC50 of trypanosome.
The subject of series [14] is Trypanosoma spp. In words: Antitrypanosomal assay, several species. It is filed as cell-based. The note with it: read-out: IC50 against several Trypanosoma spp.

Regarding `O=Cc1c[nH]c2ccc([N+](=O)[O-])cc12` [2a, 5-Nitro-1H-indole-3-carbaldehyde], the IC50 is > 526 µM in series [1]; > 100 µM in series [2]; > 100 µM in series [3]; > 100 µM in [4]; > 131 µM in series [5].

As for `C#CCn1cc(C=O)c2cc([N+](=O)[O-])ccc21` [2b, 5-Nitro-1-(prop-2-yn-1-yl)-1 H-indole-3-carbaldehyde], the half-inhibitory concentration (IC50) in series [6] is 91.1 ± 12.6 µM; in series [1], > 438 µM; in series [2], > 100 µM; in series [3], > 100 µM; in [4], > 100 µM; in [5] it was > 110 µM. For the same molecule, the SI5 in [7] was 41. In series [7], this molecule gave an SI6 of 41. Also, the SpI3 in series [7] amounted to 41. Moreover, the SpI4 in series [7] was determined as 42.

Turning to `O=Cc1cn(Cc2ccccc2)c2ccc([N+](=O)[O-])cc12` [2c, 1-Benzyl-5-nitro-1 H-indole-3-carbaldehyde], the SI2 in [8] was found to be 28. The molecule also gave an SI3 in series [8] of 28. This molecule also displayed a SpI1 in [8] of 28. The molecule also showed a SpI2 in series [8] of 28. The IC50 in [6] is > 100 µM; in series [1] it was > 357 µM; in [3], > 100 µM; in series [5] it was > 89 µM.

Take `O=C1NC(=S)S/C1=C\c1c[nH]c2ccc([N+](=O)[O-])cc12` [3a, (Z)-5-[(5-Nitro-1 H-indol-3-yl)methylene]-2-thioxothiazolidin-4-one]: the “SI Tbr IL1501” value in [9] is recorded as 0. Further, in series [10], the “SI Tbg IL1922” value turned out to be 1. Besides, the “SI Teq IVM-t1” value in series [11] amounted to 1. For the same molecule, the 50% inhibitory concentration (IC50) in series [6] was > 100 µM; in series [1], 31.6 ± 1.67 µM; in series [2], > 100 µM; in [3] it was 15.2 ± 0.32 µM; in series [4] it was > 100 µM; in series [5] it was 33.7 ± 5.01 µM. In addition, in series [12], the “Solubility in aqueous screening medium” value was “poor solubility”. For the same molecule, the “SI Tc IL3000” value in series [13] turned out to be 1. In [7], this molecule had an SI5 of 25. Moreover, the SI6 in [7] is listed as 27. Further, in [7], the SpI3 turned out to be 166. The same molecule returned a SpI4 in series [7] of 175. For the same molecule, in [5], the “SI Tbb GuTat3.1” value is listed as 1.

As to `C#CCn1cc(/C=C2\SC(=S)NC2=O)c2cc([N+](=O)[O-])ccc21` [3b, (Z)-5-{[5-Nitro-1-(prop-2-yn-1-yl)-1 H-indol-3-yl]methylene}-2-thioxothiazolidin-4-one], the “SI Tbr IL1501” value in series [9] worked out at 4. Also, the half-maximal inhibitory concentration (IC50) in series [1] is > 312 µM; in series [2] it was 68.7 ± 6.55 µM; in series [14], 20 to 40 µM; in series [3] it was 13.5 ± 0.8 µM; in series [4] it was 56.8 ± 5.57 µM; in series [5], > 78 µM. Besides, the “AG (activity gain)” value in series [2] stood at 0.7; in series [4], 0.9. Also, in series [2], the SI1 turned out to be 0.2. Moreover, in series [12], the “Solubility in aqueous screening medium” value was “poor solubility”. Moreover, the SI4 in series [4] was 0.2.

In [8], `O=C1NC(=S)S/C1=C\c1cn(Cc2ccccc2)c2ccc([N+](=O)[O-])cc12` [3c, (Z)-5-[(1-Benzyl-5-nitro-1 H-indol-3-yl)methylene]-2-thioxothiazolidin-4-one] returned an SI2 of 6, an SI3 of 6, a SpI1 of 34 and a SpI2 of 33. The half-maximal inhibitory concentration (IC50) in [6] was > 100 µM. In addition, the concentration for half-maximal inhibition (IC50) in series [1] came out at 99.13 ± 0.96 µM. Moreover, the IC50 in [2] was > 100 µM. For the same molecule, the half-maximal inhibitory concentration (IC50) in series [3] stood at 18.8 ± 3.22 µM. Also, in [4], the IC50 is > 100 µM. The “SI Tc IL3000” value in series [13] is listed as 5. Moreover, in [7], the SI5 is listed as 35, the SI6 was 37, the SpI3 was found to be 189 and the SpI4 is recorded as 196. Moreover, the half-inhibitory concentration (IC50) in series [5] is > 73 µM.

In the case of `O=C1NC(=S)S/C1=C\c1cn(Cc2ccc(F)cc2)c2ccc([N+](=O)[O-])cc12` [3e, (Z)-5-{[1-(4-Fluorobenzyl)-5-nitro-1H -indol-3-yl]methylene}-2-thioxothiazolidin-4-one], the half-maximal inhibitory concentration (IC50) in series [1] was 17 ± 2.65 µM; in series [2] it was > 100 µM; in series [3] it was 17.4 ± 1.33 µM; in series [4], > 100 µM; in series [5], > 63 µM. Besides, the “Solubility in 100% DMSO” value in series [12] is “poor solubility”. Further, the “SI Tc IL3000” value in [13] was found to be 7.

In [8], `O=C1NC(=S)S/C1=C\c1cn(Cc2cccc(Cl)c2)c2ccc([N+](=O)[O-])cc12` [3f, (Z)-5-{[1-(3-Chlorobenzyl)-5-nitro-1 H-indol-3-yl]methylene}-2-thioxothiazolidin-4-one] showed an SI2 of 12, an SI3 of 11, a SpI1 of 10 and a SpI2 of 10. Moreover, the IC50 in [6] was > 100 µM. Besides, in [2], the “AG (activity gain)” value is given as 2.6, the IC50 was 19.1 ± 3.7 µM and the SI1 amounted to 1. Moreover, the midpoint of inhibition in series [3], the IC50, lay at 22.2 ± 1.65 µM. For the same molecule, in series [12], the “Solubility in 100% DMSO” value is “poor solubility”. For the same molecule, in series [4], the “AG (activity gain)” value was 2.6, the IC50 is 17.7 ± 0.9 µM and the SI4 is reported as 1. In series [7], this molecule gave an SI5 of 5, an SI6 of 8, a SpI3 of 4 and a SpI4 of 7. The IC50 in series [5] was > 61 µM.

Take `O=C1CSC(=S)N1/N=C/c1c[nH]c2ccc([N+](=O)[O-])cc12` [4a, (E)-3-{[(5-Nitro-1 H-indol-3-yl)methylene]amino}-2-thioxothiazolidin-4-one]: the 50% inhibitory concentration (IC50) was 66.8 ± 9.55 µM in series [1]; > 100 µM in [2]; > 100 µM in [3]; > 100 µM in series [4]; > 61 µM in series [5].

Regarding `C#CCn1cc(/C=N/N2C(=O)CSC2=S)c2cc([N+](=O)[O-])ccc21` [4b, (E)-3-({[5-Nitro-1-(prop-2-yn-1-yl)-1 H-indol-3-yl]methylene}amino)-2-thioxothiazolidin-4-one], the half-inhibitory concentration (IC50) in [6] was > 100 µM; in series [2], > 100 µM; in [3], > 100 µM; in [4], > 100 µM; in [5] it was > 59 µM. Further, the “Solubility in aqueous screening medium” value in series [12] is “poor solubility”. The SI5 in series [7] is 11. In series [7], the SI6 is listed as 12. For the same molecule, the SpI3 in [7] is 11. The same molecule gave a SpI4 in [7] of 12.

On to `Cc1ccc(Cn2cc(/C=N/N3C(=O)CSC3=S)c3cc([N+](=O)[O-])ccc32)cc1` [4d, (E)-3-({[1-(4-Methylbenzyl)-5-nitro-1H -indol-3-yl]methylene}amino)-2-thioxothiazolidin-4-one], for which the “Static anti-amastigote activity IC50” value in [8] (L. donovani 9515 amastigotes in THP-1 macrophages, 24 hours after lysis) was “inactive”; in series [7] (L. major NIH S amastigotes in THP-1 macrophages, 24 hours after lysis) it was “inactive”. The IC50 in [2] was > 100 µM; in series [3], > 100 µM; in series [4], 70.9 ± 14.3 µM; in series [5] it was > 58 µM. Further, the “Solubility in aqueous screening medium” value in series [12] is listed as “poor solubility”. In series [4], the “AG (activity gain)” value is listed as 0.7. This molecule also yielded an SI4 in series [4] of 1.

As for `O=C1CSC(=S)N1/N=C/c1cn(Cc2ccc(F)cc2)c2ccc([N+](=O)[O-])cc12` [4e, (E)-3-({[1-(4-Fluorobenzyl)-5-nitro-1 H-indol-3-yl]methylene}amino)-2-thioxothiazolidin-4-one], the “SI Tbr IL1501” value in [9] amounted to 0. In [10], the “SI Tbg IL1922” value was found to be 0. Moreover, the 50% inhibitory concentration (IC50) is 22.4 ± 5.37 µM in [1]; > 100 µM in series [2]; > 100 µM in series [3]; > 100 µM in series [4]; 55.3 ± 4.84 µM in [5]. In addition, the “Solubility in aqueous screening medium” value in series [12] is “poor solubility”. Moreover, in series [5], the “SI Tbb GuTat3.1” value is listed as 0.

For the molecule `Cc1ccc(C(=O)Nc2ccc(S(=O)(=O)O)c3cc(S(=O)(=O)O)cc(S(=O)(=O)O)c23)cc1NC(=O)c1cccc(NC(=O)Nc2cccc(C(=O)Nc3cc(C(=O)Nc4ccc(S(=O)(=O)O)c5cc(S(=O)(=O)O)cc(S(=O)(=O)O)c45)ccc3C)c2)c1` [Suramin, suramin, reference compound], the figures for the IC50 in series [1] and in series [5] were > 70 µM and 0.07 ± 0.02 µM, respectively.

By IC50 is commonly meant the concentration needed to halve the response being measured.
